According to patent US11746370B2, “Methods and compositions for assessing and treating intraocular diseases and disorders” (SMILEBIOTEK ZHUHAI LIMITED, priority 2017, dated 2023):
“Also recorded” adds a separate entry of the source.

How the values were obtained:
Bacillus megaterium [1] = assay: Antibiotic sensitivity screening test in petri dishes, minimum inhibitory concentration (MIC) method; type: cell-based; details: FIG. 27; for sensitivity of Bacillus megaterium / control of its growth in vitro: agar medium with antibiotic, 1*10^7 bacteria per culture, 37° C., 24 h
Method: The bacterial culture medium (HuanKai Microbial, Guangzhou, China) containing peptone 5 g, beef extract 3 g, NaCl 5 g, agar 15 g, and MnSO4 5 mg in 1 L ddH2O (pH=7.2) was prepared in conical flask (Drtech, Guangzhou, China) and was sterilized in the autoclave (HIRAYAMA, HEV-50, Japan) at 121° C. for 30 min. Antibiotics (ampicillin, vancomycin, neomycin, metronidazole, and tetracycline, purchased from Sigma, USA) at various concentrations were added into cooled medium. Bacillus megaterium (total 1*10^7 per culture) was cultured in the incubator (HettCube 200, Germany) at 37° C. for 24 h.
To test whether antibiotics can control the growth of Bacillus megaterium in vitro and in vivo, an antibiotic sensitivity screening test in petri dishes was carried out. The sensitivity of Bacillus megaterium to several major antimicrobial agents including Ampicillin, vancomycin, neomycin, metronidazole, and tetracycline were examined using the minimum inhibitory concentration (MIC) method.

Bacillus megaterium [2] = assay: Bacillus megaterium subretinal inoculation model, bacteria-induced drusenoid pathology in monkey retinal tissues; type: in vivo; details: intravitreous 0.5 mg, one injection on Day 2 post bacterial inoculation, FIG. 28
Method: The macaques were sedated by intramuscular injection of a mixture of tiletamine hydrochloride (2.5 mg/kg) and xolazepam hydrochloride (2.5 mg/kg). After instilling topical anesthesia (0.5% proparacaine hydrochloride), the eyes were immediately visualized in vivo using a light microscope. The pupils were then dilated with 0.5% tropicamide and 0.5% phenylephrine to obtain the fundus photographs. Then a 35 gauge anterior chamber cannula was inserted through a sclerotomy and advanced through the vitreous. Under microscopic monitoring, […] of PBS (with or without bacteria) was injected into the subretinal space between photo receptors and RPE, using a NanoFil Syringe Nanofil-100 for Microinjection (World Precision Instruments, USA). All procedures were done using sterile instruments. The macaque was euthanized 47 days post inoculation and the eyeball was enucleated for histological analyses. The eyeballs were fixed in 4% paraformaldehyde for 48 h and then embedded in paraffin. Sections were cut on a microtome at 6 μm and stained with H&E.
(§1) Next, Bacillus megaterium subretinal inoculation model was used to test whether antibiotics might be able to change the bacteria-induced drusenoid pathology in monkey retinal tissues.

[3] = Intraocular administration in monkey, ocular complications; type: in vivo; details: data not shown
From the text: as §1

Molecule	fold less effective in controlling the growth of Bacillus megaterium (Bacillus megaterium [1]; compared with neomycin)	sensitivity of Bacillus megaterium / control of its growth in vitro (Bacillus megaterium [1])	size of drusenoid lesion in retinal tissue (Bacillus megaterium [2])	ocular complications [3]
Cc1ncc([N+](=O)[O-])n1CCO [metronidazole]	10000 fold	–	–	–
CN[C@H](CC(C)C)C(=O)N[C@H]1C(=O)N[C@@H](CC(N)=O)C(=O)N[C@H]2C(=O)N[C@H]3C(=O)N[C@H](C(=O)N[C@H](C(=O)O)c4cc(O)cc(O)c4-c4cc3ccc4O)[C@H](O)c3ccc(c(Cl)c3)Oc3cc2cc(c3O[C@@H]2O[C@H](CO)[C@@H](O)[C@H](O)[C@H]2O[C@H]2C[C@](C)(N)[C@H](O)[C@H](C)O2)Oc2ccc(cc2Cl)[C@H]1O [vancomycin]	–	able to inhibit the growth	reduction in the size of drusenoid lesion	–
neomycin	–	most sensitive; also recorded: best in vitro activity	–	significant ocular complications including ophthalmatrophia
